Measured values as given in US20050129765A1, “Controlled release of topiramate in liquid dosage forms” (priority 2003, published 2005).

Key:
[1] = cited from earlier work
[2] = Drug solubility in various carriers; assay type: physicochemical

solubility in carrier ([2]; 20-30% topiramate in 90/10, 80/20 or 70/30 PEG 400/Cremophor EL): completely soluble | solubility in carrier ([2]; 45% topiramate in 100% of PEG400): completely soluble
SMILES: CC1(C)O[C@@H]2[C@@H](CO[C@@]3(COS(N)(=O)=O)OC(C)(C)O[C@@H]23)O1 [topiramate, 2,3:4,5-di-O-isopropylidene-β-D-fructopyranose sulfamate]
solubility (qualitative) ([1]; alkaline solutions containing sodium hydroxide or sodium phosphate, acetone, dimethylsulfoxide and ethanol): soluble | solubility in water ([1]; in water): about 9.8 mg/ml
